{
  "source": "PubChem BioAssay AID651879",
  "about": "(NMMLSC, 2012)",
  "note": "The source made the active and inactive calls. No rule for the calls is given here.",
  "data": [
    {"target": "Botulinum neurotoxin type A light chain protease (Clostridium botulinum A str. ATCC 3502)", "assay": "Botulinum neurotoxin type A light chain protease inhibitors, multiplex microsphere dose response, confirmatory (AID 651879)", "conditions": "multiplex microsphere protease cleavage assay, flow cytometry", "values": [
      {"smiles": "CNC(=O)c1ccc(N2N=C(c3ccc(SC)cc3)CC2c2ccccc2)cc1", "note": "(centres undefined)", "EC50": "> 20 µM (inactive)"},
      {"smiles": "c1ccc(-c2cc(-c3ccccc3)n(-c3ccccc3)n2)cc1", "EC50": "> 20 µM (inactive)"},
      {"smiles": "CSc1ccc(C2=NN(c3ccc(C(=O)N4CCCCC4)cc3)C(c3ccccc3)C2)cc1", "note": "(centres undefined)", "EC50": "> 20 µM (inactive)"},
      {"smiles": "NS(=O)(=O)c1ccc(N2N=C(c3ccccc3)CC2c2ccccc2)cc1", "note": "(centres undefined)", "EC50": "> 20 µM (inactive)"},
      {"smiles": "CS(=O)(=O)c1ccc(N2N=C(c3ccncc3)CC2c2ccccc2)cc1", "note": "(centres undefined)", "EC50": "> 20 µM (inactive)"},
      {"smiles": "COc1ccc(N2N=C(c3ccncc3)CC2c2ccccc2)cc1", "note": "(centres undefined)", "EC50": "> 20 µM (inactive)"},
      {"smiles": "COc1ccc(N2N=C(c3cccnc3)CC2c2ccccc2)cc1", "note": "(centres undefined)", "EC50": "> 20 µM (inactive)"},
      {"smiles": "COc1ccc(N2N=C(c3ccccc3)CC2c2ccccc2)cc1", "note": "(centres undefined)", "EC50": "> 20 µM (inactive)"},
      {"smiles": "NS(=O)(=O)c1ccc(N2N=C(c3cccnc3)CC2c2ccccc2)cc1", "note": "(centres undefined)", "EC50": "> 20 µM (inactive)"},
      {"smiles": "NS(=O)(=O)c1ccc(N2N=C(c3ccncc3)CC2c2ccccc2)cc1", "note": "(centres undefined)", "EC50": "> 20 µM (inactive)"},
      {"smiles": "c1ccc(C2CC(c3cccnc3)=NN2c2ccccc2)cc1", "note": "(centres undefined)", "EC50": "> 20 µM (inactive)"},
      {"smiles": "O=C(c1ccc(N2N=C(c3ccccc3)CC2c2ccccc2)cc1)N1CCOCC1", "note": "(centres undefined)", "EC50": "> 20 µM (inactive)"},
      {"smiles": "CNC(=O)c1ccc(N2N=C(c3ccccc3)CC2c2ccccc2)cc1", "note": "(centres undefined)", "EC50": "> 20 µM (inactive)"},
      {"smiles": "CSc1ccc(C2=NN(c3ccc(C(=O)N4CCOCC4)cc3)C(c3ccccc3)C2)cc1", "note": "(centres undefined)", "EC50": "> 20 µM (inactive)"},
      {"smiles": "CS(=O)(=O)c1ccc(N2N=C(c3ccccc3)CC2c2ccccc2)cc1", "note": "(centres undefined)", "EC50": "> 20 µM (inactive)"},
      {"smiles": "CS(=O)(=O)c1ccc(N2N=C(c3cccnc3)CC2c2ccccc2)cc1", "note": "(centres undefined)", "EC50": "> 20 µM (inactive)"},
      {"smiles": "COc1ccc(N2N=C(c3ccccn3)CC2c2ccccc2)cc1", "note": "(centres undefined)", "EC50": "> 20 µM (inactive)"},
      {"smiles": "CSc1ccc(C2=NN(c3ccc(S(C)(=O)=O)cc3)C(c3ccccc3)C2)cc1", "note": "(centres undefined)", "EC50": "> 20 µM (inactive)"},
      {"smiles": "CC(C)CNC(=O)c1ccc(N2N=C(c3ccccc3)CC2c2ccccc2)cc1", "note": "(centres undefined)", "EC50": "> 20 µM (inactive)"},
      {"smiles": "CSc1ccc(C2=NN(c3ccccc3)C(c3ccccc3)C2)cc1", "note": "(centres undefined)", "EC50": "> 20 µM (inactive)"},
      {"smiles": "CC(C)NC(=O)c1ccc(N2N=C(c3ccccc3)CC2c2ccccc2)cc1", "note": "(centres undefined)", "EC50": "> 20 µM (inactive)"},
      {"smiles": "O=[N+]([O-])c1ccc(N2N=C(c3ccccc3)CC2c2ccccc2)cc1", "note": "(centres undefined)", "EC50": "> 20 µM (inactive)"},
      {"smiles": "CSc1ccc(C2=NN(c3ccc([N+](=O)[O-])cc3)C(c3ccccc3)C2)cc1", "note": "(centres undefined)", "EC50": "0.5 µM"},
      {"smiles": "c1ccc(C2=NN(c3ccccc3)C(c3ccccc3)C2)cc1", "note": "(centres undefined)", "EC50": "> 20 µM (inactive)"},
      {"smiles": "c1ccc(C2CC(c3ccccn3)=NN2c2ccccc2)cc1", "note": "(centres undefined)", "EC50": "> 20 µM (inactive)"},
      {"smiles": "O=C(c1ccc(N2N=C(c3ccccc3)CC2c2ccccc2)cc1)N1CCCCC1", "note": "(centres undefined)", "EC50": "> 20 µM (inactive)"},
      {"smiles": "c1ccc(C2CC(c3ccncc3)=NN2c2ccccc2)cc1", "note": "(centres undefined)", "EC50": "> 20 µM (inactive)"},
      {"smiles": "CSc1ccc(C2=NN(c3ccc(S(N)(=O)=O)cc3)C(c3ccccc3)C2)cc1", "note": "(centres undefined)", "EC50": "> 20 µM (inactive)"},
      {"smiles": "COc1ccc(N2N=C(c3ccc(SC)cc3)CC2c2ccccc2)cc1", "note": "(centres undefined)", "EC50": "> 20 µM (inactive)"}
    ]}
  ]
}
